Test results published in PubChem BioAssay (NCI).
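How tested: cells in 96-well plates exposed to compound for 48 hours at five concentrations. Here, GI50 denotes the concentration required for 50% inhibition of growth. TGI denotes the concentration required for complete inhibition of growth.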

Columns and labels:
Experiment in all cases: NCI-60 cell line screen, 48 h
[1] = tested on: KM12 colon
[2] = tested on: MDA-MB-231 breast
[3] = tested on: MCF7 breast
[4] = tested on: SK-MEL-28 melanoma
[5] = tested on: UACC-257 melanoma
[6] = tested on: SN12C renal
[7] = tested on: SNB-19 CNS
[8] = tested on: CAKI-1 renal
[9] = tested on: MALME-3M melanoma
[10] = tested on: RXF 393 renal

Compound | GI50 [1] [µM] | TGI [1] [µM] | GI50 [2] [µM] | TGI [2] [µM] | GI50 [3] [µM] | TGI [3] [µM] | GI50 [4] [µM] | TGI [4] [µM] | GI50 [5] [µM] | TGI [5] [µM] | GI50 [6] [µM] | TGI [6] [µM] | GI50 [7] [µM] | TGI [7] [µM] | GI50 [8] [µM] | TGI [8] [µM] | GI50 [9] [µM] | TGI [9] [µM] | TGI [10] [µM] | GI50 [10] [µM]
CCN(CC)CCN1CC(O)=C(c2nc(-c3ccc(Cl)cc3)cs2)C1=N | 2.72 | 8.09 | 1.97 | 4.1 | 1.42 | 3.36 | 1.86 | 3.49 | 1.82 | 3.51 | 5.25 | > 100 | 2.1 | 4.5 | 1.98 | 6.72 | 1.69 | 3.22 |  | 
COc1ccc2c(c1)C=C([N+](=O)[O-])C(C1OC(C)(C)OC1C1COC(C)(C)O1)O2 (configuration not stated) |  | 4.31 |  | 6.6 |  | 9.12 |  | 3.83 |  | 6.16 |  | 19.7 |  | 25.7 |  | 13.9 |  | 6.15 | 8.7 | 
CN(C)CCNC(=O)c1cccc(C(=O)Nc2ccccc2)c1[N+](=O)[O-] |  | > 100 |  | > 100 |  | > 100 |  | > 100 |  | > 100 |  | > 100 |  | > 100 |  | > 100 |  | > 100 |  | 
O=C(CCl)Nc1ccc(Cl)cc1 | 8.06 | 21 | 5.24 | 25.9 | 1.78 | 4.54 | 9.31 | 22.1 | 10.4 | 27.1 | 3.4 | 22.9 | 10.3 | 25.6 | 1.59 | 3.31 | 3.33 | 13.2 | 4.43 | 2.14
COc1cc[nH]c1/C=C1\C(=O)Nc2ccccc21 | 0.948 | > 25 | 4.87 | > 25 | 5.79 | > 25 | 16 | > 25 | 17.3 | > 25 | 7.36 | > 25 | > 25 | > 25 | 1.04 | > 11.5 | 9.88 | > 25 | > 25 | 5.33
COc1ccc(C(=O)c2cc(C)c(OC)c(C)c2)c(OC)c1N(C(=O)C(Cl)Cl)C(=O)C(Cl)Cl | 0.0461 |  | 0.107 | > 100 | 0.0811 | > 100 | 0.237 | > 100 | > 69.4 | > 100 | 0.0727 | > 100 | 0.0492 | > 100 | 0.0415 | > 100 | 0.129 | > 100 |  | 
Cc1cc(SCC(=O)c2ccccc2)nc2ccccc12 |  | > 100 |  | > 100 |  | > 100 |  | > 100 |  | > 100 |  | > 100 |  | > 100 |  | > 100 |  | > 100 | > 100 | 
COc1ccc(OC)c(/C=C/C(=O)N/N=C/c2ccc(Cl)cc2)c1 | 0.0466 | > 29.1 | 0.531 | > 100 | 0.0529 | > 57 | 0.372 | > 100 | 36.5 | > 100 | 0.488 | > 100 | 0.159 | > 100 | 0.0786 | > 100 |  |  | 0.268 | 0.0363
CCc1[nH]c(=O)nc(N)c1-c1ccc(N2CCCCC2)c([N+](=O)[O-])c1 |  | > 100 |  | > 100 |  | > 100 |  | > 100 |  | > 100 |  | > 100 |  | > 100 |  | > 100 |  |  | > 100 | 
CN/N=C(/CCN1CCCC1)CC(c1ccccc1)c1c(O)c2ccccc2oc1=O (configuration not stated) |  | > 100 |  | > 100 |  | > 100 |  | > 100 |  | > 100 |  | > 100 |  | > 100 |  | > 100 |  | > 100 | > 100 | 
CC(=O)OC1Oc2ccccc2-c2oc(=O)c(-c3cc4ccc(N(C)C)cc4oc3=O)cc21 (configuration not stated) | 13.7 | 30.6 | 13 | 32.1 | 10.2 | 29.8 | 19.9 | 56.4 | 10.2 | 43.3 | 19.9 | 69.6 | 13.1 | 36 | 14.9 | > 100 | 3.7 | 11.1 | 15.2 | 3.54
O=C(N/N=C/c1cccc(O)c1O)c1ccccc1 | 0.769 | > 100 | 0.495 | > 100 | 0.357 | > 100 | 1.24 | > 100 | 0.895 | 7.05 | 0.73 | > 100 | 1.46 | > 100 | 0.519 | 16.5 | 1.35 | 35.8 | > 100 | 1.98
O=C(c1cccc(O)c1O)c1cn(Cc2ccc(F)cc2)c2cccc(O)c12 | 5.46 | 19.4 | 5.83 | 40.2 | 2.14 | 13.1 | 6.01 | 19.5 | 4.44 | 14.3 | 6.37 | 21.7 | 3.97 | 17 | 4.13 | 18.5 | 4.83 | 22 |  | 
CC1CN1CC(O)C(O)CN1CC1C (configuration not stated) | 7.37 | 23 | 13.9 | 45.3 | 0.427 | 36.6 | 17.5 | 97.4 | 3.12 | 23.3 | 0.692 | > 67.8 | 6.21 | > 100 | 0.229 | 4.54 | 2.13 | 13.7 | 8.77 | 2.04
CCS(=O)(=O)c1ccc(OC)c(Nc2ncc(-c3cccc(OC)c3)o2)c1 | 1.06 | > 25 | 8.54 | > 25 | > 18.3 | > 25 | > 20.6 | > 25 | > 22.2 | > 25 | 8.3 | > 25 | 12 | > 25 | 8.58 | > 25 | > 25 | > 25 | 19.7 | 5.83
COc1cc(C2=NN(C(C)=O)C(c3ccc(OC(C)=O)cc3OC(C)=O)O2)c(OC(C)=O)c2ccccc12 (configuration not stated) | 1.02 | 27.3 | 0.543 | > 56.4 | 2.73 | 16.1 | 1.27 | 23.2 | 0.981 | 6.86 | 0.864 | > 43.8 | 1.19 | > 75.3 | 0.465 | > 21.1 | 1.83 | 20.5 | 12.5 | 1
COc1cc2oc(-c3ccc(O)cc3)cc(=O)c2c(OC)c1OC |  | > 100 |  | > 100 |  | > 100 |  | > 100 |  | > 100 |  | > 100 |  | > 100 |  | > 100 |  | > 100 | > 100 | 
CN(C)CCCn1c2c(c3ccccc3c1=O)C(=O)c1ccccc1-2 | 3.6 | 17.7 | 1.74 | 5.09 | 0.554 | 12.2 | 3.97 | 18.3 |  |  | 0.907 | 3.07 | 2.2 | 21.9 | 0.583 | 2.44 | 2.31 | 5.71 | 49.3 | 5.38
Nc1ncc(-c2cnn(CCO)c2)c2scc(-c3ccc(NC(=O)Nc4cccc(F)c4)cc3)c12 | 0.0103 | 1.19 | 1.14 | 2.91 | 0.226 | 3.7 | 0.465 | 3.56 | 0.287 | 1.89 | 0.186 | 6.59 | 1.04 | 9.16 | 0.32 | 2.2 | 0.132 | 1.38 | 1.13 | 0.241
COC(=O)Nc1nc2ccc(Oc3ccc(NC(=O)Nc4ccccc4)cc3)cc2[nH]1 | 0.106 | 4.87 | 0.32 | 10.3 | 0.0932 |  | 0.348 | 6.4 | 0.167 | > 14.8 | 0.452 | > 10.9 | 0.183 | > 17 | 3.4 | > 21.7 | 0.14 | > 11.4 | 0.533 | 0.069
NCCCC[C@@H]1NC(=O)[C@H]2CCCN2C(=O)[C@H](Cc2ccccc2)NC(=O)[C@H](Cc2ccccc2)CNC1=O | > 100 | > 100 | > 100 | > 100 | > 100 | > 100 | > 100 | > 100 | > 100 | > 100 | > 100 | > 100 | > 100 | > 100 | > 100 | > 100 | > 100 | > 100 | > 100 | > 100
CCS(=O)(=O)c1ccc(OC)c(Nc2ncc(-c3cccc(C(C)=O)c3)o2)c1 | 2.1 | > 25 | 7.73 | > 25 | > 25 | > 25 | > 25 | > 25 | > 25 | > 25 | 14 | > 25 | 19.9 | > 25 | 8.71 | > 25 |  |  | 16.6 | 3.21
COC(=O)C(=O)C(C(=O)C(=O)Nc1ccccc1C(N)=O)c1nc2ccc(Cl)cc2[nH]c1=O (configuration not stated) |  | > 100 |  | > 100 |  | > 100 |  | > 100 |  | > 100 |  | > 100 |  | > 100 |  | > 100 |  |  | > 100 | 
CC(=O)OC1CC(O)C23COC(O)C1(C)C2CC(O)C1(C)C3C(=O)C(O)C2(C)C(c3ccoc3)CC3OC321 (configuration not stated) | < 0.01 | > 100 | > 28.7 | > 100 | > 100 | > 100 | > 100 | > 100 | 0.16 | 5.51 | > 100 | > 100 | > 100 | > 100 | 2.97 | > 100 |  |  | > 100 | > 100
CCC#CC[C@H]1C/C=C2/C(=O)C=C[C@@H]2C/C=C\CCCC(=O)O1 | 0.848 | 2.16 | 1.85 | 9.28 | 0.203 | 5.82 | 1.17 | 3.83 |  |  | 0.954 | 2.78 | 1.48 | 7.02 | 0.935 | 2.1 | 1.13 | 3.24 | 1.96 | 0.945
Cc1cn2c(/C=C3/C(=O)N(C)c4ccccc43)c(C)nc2s1 | 3.38 | > 100 | 18.1 | > 100 | 1.02 | 13.3 | 14.2 | 53.4 | 67.8 | > 100 | 25.5 | > 100 | 5.51 | 27.7 |  |  | 54.3 | > 100 | > 100 | 53.8
CC12CCCC(O)C1CCC1=CC3(CCC12)SCCS3 (configuration not stated) |  | > 10 |  | > 10 |  | > 10 |  | > 10 |  | > 10 |  | > 10 |  | > 10 |  | > 10 |  | > 10 |  | 
O=C1NC(=O)c2ccc([N+](=O)[O-])c3cccc1c23 |  |  |  | 34.5 |  | 27.9 |  | 37.8 |  | 33.1 |  | 32.1 |  | 33.7 |  | 39 |  |  | 29.1 | 
NC(N)=NCCCn1c2c(c3ccccc3c1=O)C(=O)c1ccccc1-2 | 21.9 | 59.1 | 15.8 | 46.7 | 7.27 | 25.1 | 28.6 | > 100 |  |  | 0.229 | 0.572 | 18.5 | 98.2 | 20.3 | 49 | 18.6 | 45.1 | 42.4 | 7.82
